Experimental data from patent US20260265329A1, “POLYPEPTIDE AND DERIVATIVE THEREOF, COMPOSITION, AND USE THEREOF” (HANGZHOU SCIWIND BIOSCIENCES CO., LTD., priority 2023, published 2026).
Starred links: 1 amine or outer side, 2 acyl side, 3 side chain; linkers in the order of their positions; H or OH if unused. Non-standard residues stand in square brackets, D forms with d. Residues, ends and D or L forms follow the SMILES beside them. *: point of attachment. C20 diacid = O=C(O)CCCCCCCCCCCCCCCCCCC(=O)*; C18 diacid = O=C(O)CCCCCCCCCCCCCCCCC(=O)*; C16 diacid = O=C(O)CCCCCCCCCCCCCCC(=O)*; γGlu = O=C(O)[C@H](CCC(=O)[*:2])N[*:1]; βAsp = O=C(O)[C@H](CC(=O)[*:2])N[*:1]; Hyp = O=C(O)[C@@H]1C[C@@H](O)CN1; Trx = NC[C@H]1CC[C@H](C(=O)O)CC1; AEEA = NCCOCCOCC(=O)O; Inp = O=C(O)C1CCNCC1

Molecular target: T1, human amylin receptors (Homo sapiens, UniProt O60896+P30988)
T1 construct: host or cells: CHO-K1/Ga15/AMY3 cells, further stably transfected with a CRE-luciferase plasmid
T1 sequence (P30988 25-474): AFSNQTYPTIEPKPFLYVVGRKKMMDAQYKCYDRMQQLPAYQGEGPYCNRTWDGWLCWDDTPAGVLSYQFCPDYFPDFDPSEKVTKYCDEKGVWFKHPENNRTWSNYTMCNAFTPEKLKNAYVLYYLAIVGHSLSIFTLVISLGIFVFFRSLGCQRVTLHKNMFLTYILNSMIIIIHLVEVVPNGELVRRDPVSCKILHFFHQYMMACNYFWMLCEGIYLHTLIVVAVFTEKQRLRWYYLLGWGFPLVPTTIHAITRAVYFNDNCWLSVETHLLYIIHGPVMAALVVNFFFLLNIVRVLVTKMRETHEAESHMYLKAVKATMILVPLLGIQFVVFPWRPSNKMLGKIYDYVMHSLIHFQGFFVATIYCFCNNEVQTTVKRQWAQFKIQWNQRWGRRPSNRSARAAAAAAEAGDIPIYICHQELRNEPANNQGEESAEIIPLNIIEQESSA
T1 sequence (O60896 24-148 partner): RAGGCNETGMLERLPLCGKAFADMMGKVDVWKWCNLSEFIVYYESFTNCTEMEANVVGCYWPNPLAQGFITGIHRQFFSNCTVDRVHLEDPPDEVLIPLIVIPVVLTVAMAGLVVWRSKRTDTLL
Test: Luciferase assay in stably transfected amylin receptor/CRE-luc CHO cell line
Type: cell-based
Conditions: for Relative activity: EC50 ratio of Cagrilintide to the compound, Cagrilintide 100%; for EC50: amylin receptor/CRE-luc CHO cells, 24 hours incubation, luminescence

Structure (SMILES) | Relative activity [%] | EC50 [nM]
CC[C@H](C)[C@H](NC(=O)[C@@H]1CCCN1C(=O)[C@H](CCCCN)NC(=O)[C@H](CC(C)C)NC(=O)[C@H](CC(N)=O)NC(=O)[C@H](CC(N)=O)NC(=O)[C@H](CO)NC(=O)[C@H](CO)NC(=O)[C@H](Cc1c[nH]cn1)NC(=O)[C@H](CCCNC(=N)N)NC(=O)[C@H](CC(C)C)NC(=O)[C@H](Cc1ccccc1)NC(=O)[C@H](CC(=O)O)NC(=O)[C@H](C)NC(=O)[C@H](CC(C)C)NC(=O)[C@H](CCCNC(=N)N)NC(=O)[C@H](CCC(N)=O)NC(=O)[C@@H](NC(=O)[C@H](C)NC(=O)[C@H](C)NC(=O)[C@@H](NC(=O)[C@H](CO)NC(=O)[C@H](CC(C)C)NC(=O)[C@H](CCC(N)=O)NC(=O)[C@H](CO)NC(=O)[C@H](C)NC(=O)COCCOCCNC(=O)COCCOCCNC(=O)C[C@H](NC(=O)CCCCCCCCCCCCCCCCCCC(=O)O)C(=O)O)[C@@H](C)O)[C@@H](C)O)C(=O)N[C@@H](CC(C)C)C(=O)N1CCC[C@H]1C(=O)N1CCC[C@H]1C(=O)N[C@H](C(=O)N[C@@H](CC(N)=O)C(=O)N[C@H](C(=O)NCC(=O)N[C@@H](CO)C(=O)N[C@@H](CC(N)=O)C(=O)N[C@H](C(=O)N1C[C@H](O)C[C@H]1C(N)=O)[C@@H](C)O)C(C)C)[C@@H](C)O [M33] ({C20 diacid-βAsp-AEEA-AEEA}-ASQLSTAATQRLADFLRHSSNNLKPILPPTNVGSNT[Hyp]-NH2) | 37 | 0.145
CC[C@H](C)[C@H](NC(=O)[C@@H]1CCCN1C(=O)[C@H](CCCCN)NC(=O)[C@H](CC(C)C)NC(=O)[C@H](CC(N)=O)NC(=O)[C@H](CC(N)=O)NC(=O)[C@H](CO)NC(=O)[C@H](CO)NC(=O)[C@H](Cc1c[nH]cn1)NC(=O)[C@H](CCCNC(=N)N)NC(=O)[C@H](CC(C)C)NC(=O)[C@H](Cc1ccccc1)NC(=O)[C@H](CC(=O)O)NC(=O)[C@H](C)NC(=O)[C@H](CC(C)C)NC(=O)[C@H](CCCNC(=N)N)NC(=O)[C@H](CCC(N)=O)NC(=O)[C@@H](NC(=O)[C@H](C)NC(=O)[C@H](C)NC(=O)[C@@H](NC(=O)[C@H](CO)NC(=O)[C@H](CC(C)C)NC(=O)[C@H](CCC(N)=O)NC(=O)[C@H](CO)NC(=O)[C@H](C)NC(=O)COCCOCCNC(=O)COCCOCCNC(=O)[C@H](CC(=O)O)NC(=O)CCCCCCCCCCCCCCCCCCC(=O)O)[C@@H](C)O)[C@@H](C)O)C(=O)N[C@@H](CC(C)C)C(=O)N1CCC[C@H]1C(=O)N1CCC[C@H]1C(=O)N[C@H](C(=O)N[C@@H](CC(N)=O)C(=O)N[C@H](C(=O)NCC(=O)N[C@@H](CO)C(=O)N[C@@H](CC(N)=O)C(=O)N[C@H](C(=O)N1C[C@H](O)C[C@H]1C(N)=O)[C@@H](C)O)C(C)C)[C@@H](C)O [M34] ({C20 diacid}-D[AEEA][AEEA]ASQLSTAATQRLADFLRHSSNNLKPILPPTNVGSNT[Hyp]-NH2) | 40 | 0.132
CC[C@H](C)[C@H](NC(=O)[C@@H]1CCCN1C(=O)[C@H](CCCCN)NC(=O)[C@H](CC(C)C)NC(=O)[C@H](CC(N)=O)NC(=O)[C@H](CC(N)=O)NC(=O)[C@H](CO)NC(=O)[C@H](CO)NC(=O)[C@H](Cc1c[nH]cn1)NC(=O)[C@H](CCCNC(=N)N)NC(=O)[C@H](CC(C)C)NC(=O)[C@H](Cc1ccccc1)NC(=O)[C@H](CC(=O)O)NC(=O)[C@H](C)NC(=O)[C@H](CC(C)C)NC(=O)[C@H](CCCNC(=N)N)NC(=O)[C@H](CCC(N)=O)NC(=O)[C@@H](NC(=O)[C@H](C)NC(=O)[C@H](C)NC(=O)[C@@H](NC(=O)[C@H](CO)NC(=O)[C@H](CC(C)C)NC(=O)[C@H](CCC(N)=O)NC(=O)[C@H](CO)NC(=O)[C@H](C)NC(=O)COCCOCCNC(=O)COCCOCCNC(=O)[C@H]1CC[C@H](CNC(=O)CCCCCCCCCCCCCCCCCCC(=O)O)CC1)[C@@H](C)O)[C@@H](C)O)C(=O)N[C@@H](CC(C)C)C(=O)N1CCC[C@H]1C(=O)N1CCC[C@H]1C(=O)N[C@H](C(=O)N[C@@H](CC(N)=O)C(=O)N[C@H](C(=O)NCC(=O)N[C@@H](CO)C(=O)N[C@@H](CC(N)=O)C(=O)N[C@H](C(=O)N1C[C@H](O)C[C@H]1C(N)=O)[C@@H](C)O)C(C)C)[C@@H](C)O [M35] ({C20 diacid-Trx-AEEA-AEEA}-ASQLSTAATQRLADFLRHSSNNLKPILPPTNVGSNT[Hyp]-NH2) | 124 | –

The next lines start with the values.

Relative activity [%] | EC50 [nM] | Structure (SMILES)
44 | 0.115 | CC[C@H](C)[C@H](NC(=O)[C@@H]1CCCN1C(=O)[C@H](CCCCN)NC(=O)[C@H](CC(C)C)NC(=O)[C@H](CC(N)=O)NC(=O)[C@H](CC(N)=O)NC(=O)[C@H](CO)NC(=O)[C@H](CO)NC(=O)[C@H](Cc1c[nH]cn1)NC(=O)[C@H](CCCNC(=N)N)NC(=O)[C@H](CC(C)C)NC(=O)[C@H](Cc1ccccc1)NC(=O)[C@H](CC(=O)O)NC(=O)[C@H](C)NC(=O)[C@H](CC(C)C)NC(=O)[C@H](CCCNC(=N)N)NC(=O)[C@H](CCC(N)=O)NC(=O)[C@@H](NC(=O)[C@H](C)NC(=O)[C@H](C)NC(=O)[C@@H](NC(=O)[C@H](CO)NC(=O)[C@H](CC(C)C)NC(=O)[C@H](CCC(N)=O)NC(=O)[C@H](CO)NC(=O)[C@H](C)NC(=O)COCCOCCNC(=O)COCCOCCNC(=O)[C@H](CCC(=O)O)NC(=O)CCCCCCCCCCCCCCCCCCC(=O)O)[C@@H](C)O)[C@@H](C)O)C(=O)N[C@@H](CC(C)C)C(=O)N1CCC[C@H]1C(=O)N1CCC[C@H]1C(=O)N[C@H](C(=O)N[C@@H](CC(N)=O)C(=O)N[C@H](C(=O)NCC(=O)N[C@@H](CO)C(=O)N[C@@H](CC(N)=O)C(=O)N[C@H](C(=O)N1C[C@H](O)C[C@H]1C(N)=O)[C@@H](C)O)C(C)C)[C@@H](C)O [M32] ({C20 diacid}-E[AEEA][AEEA]ASQLSTAATQRLADFLRHSSNNLKPILPPTNVGSNT[Hyp]-NH2)
– | 0.059 | CC[C@H](C)[C@H](NC(=O)[C@@H]1CCCN1C(=O)[C@H](CCCCN)NC(=O)[C@H](CC(C)C)NC(=O)[C@H](CC(N)=O)NC(=O)[C@H](CC(N)=O)NC(=O)[C@H](CO)NC(=O)[C@H](CO)NC(=O)[C@H](Cc1c[nH]cn1)NC(=O)[C@H](CCCNC(=N)N)NC(=O)[C@H](CC(C)C)NC(=O)[C@H](Cc1ccccc1)NC(=O)[C@H](CC(=O)O)NC(=O)[C@H](C)NC(=O)[C@H](CC(C)C)NC(=O)[C@H](CCCNC(=N)N)NC(=O)[C@H](CCC(N)=O)NC(=O)[C@@H](NC(=O)[C@H](C)NC(=O)[C@H](C)NC(=O)[C@@H](NC(=O)[C@H](CO)NC(=O)[C@H](CC(C)C)NC(=O)[C@H](CCC(N)=O)NC(=O)[C@H](CO)NC(=O)[C@H](C)NC(=O)COCCOCCNC(=O)COCCOCCNC(=O)C1CCN(C(=O)CCCCCCCCCCCCCCCCCCC(=O)O)CC1)[C@@H](C)O)[C@@H](C)O)C(=O)N[C@@H](CC(C)C)C(=O)N1CCC[C@H]1C(=O)N1CCC[C@H]1C(=O)N[C@H](C(=O)N[C@@H](CC(N)=O)C(=O)N[C@H](C(=O)NCC(=O)N[C@@H](CO)C(=O)N[C@@H](CC(N)=O)C(=O)N[C@H](C(=O)N1C[C@H](O)C[C@H]1C(N)=O)[C@@H](C)O)C(C)C)[C@@H](C)O [M36] ({C20 diacid-Inp-AEEA-AEEA}-ASQLSTAATQRLADFLRHSSNNLKPILPPTNVGSNT[Hyp]-NH2)
184 | 0.03 | CC[C@H](C)[C@H](NC(=O)[C@@H]1CCCN1C(=O)[C@H](CCCCN)NC(=O)[C@H](CC(C)C)NC(=O)[C@H](CC(N)=O)NC(=O)[C@H](CC(N)=O)NC(=O)[C@H](CO)NC(=O)[C@H](CO)NC(=O)[C@H](Cc1c[nH]cn1)NC(=O)[C@H](CCCNC(=N)N)NC(=O)[C@H](CC(C)C)NC(=O)[C@H](Cc1ccccc1)NC(=O)[C@H](CC(=O)O)NC(=O)[C@H](C)NC(=O)[C@H](CC(C)C)NC(=O)[C@H](CCCNC(=N)N)NC(=O)[C@H](CCC(N)=O)NC(=O)[C@@H](NC(=O)[C@H](C)NC(=O)[C@H](C)NC(=O)[C@@H](NC(=O)[C@H](CO)NC(=O)[C@H](CC(C)C)NC(=O)[C@H](CCC(N)=O)NC(=O)[C@H](CO)NC(=O)[C@H](C)NC(=O)CC[C@H](NC(=O)CCCCCCCCCCCCCCCCC(=O)O)C(=O)O)[C@@H](C)O)[C@@H](C)O)C(=O)N[C@@H](CC(C)C)C(=O)N1CCC[C@H]1C(=O)N1CCC[C@H]1C(=O)N[C@H](C(=O)N[C@@H](CC(N)=O)C(=O)N[C@H](C(=O)NCC(=O)N[C@@H](CO)C(=O)N[C@@H](CC(N)=O)C(=O)N[C@H](C(=O)N1C[C@H](O)C[C@H]1C(N)=O)[C@@H](C)O)C(C)C)[C@@H](C)O [M37] ({C18 diacid-γGlu}-ASQLSTAATQRLADFLRHSSNNLKPILPPTNVGSNT[Hyp]-NH2)
181 | 0.03 | CC[C@H](C)[C@H](NC(=O)[C@@H]1CCCN1C(=O)[C@H](CCCCN)NC(=O)[C@H](CC(C)C)NC(=O)[C@H](CC(N)=O)NC(=O)[C@H](CC(N)=O)NC(=O)[C@H](CO)NC(=O)[C@H](CO)NC(=O)[C@H](Cc1c[nH]cn1)NC(=O)[C@H](CCCNC(=N)N)NC(=O)[C@H](CC(C)C)NC(=O)[C@H](Cc1ccccc1)NC(=O)[C@H](CC(=O)O)NC(=O)[C@H](C)NC(=O)[C@H](CC(C)C)NC(=O)[C@H](CCCNC(=N)N)NC(=O)[C@H](CCC(N)=O)NC(=O)[C@@H](NC(=O)[C@H](C)NC(=O)[C@H](C)NC(=O)[C@@H](NC(=O)[C@H](CO)NC(=O)[C@H](CC(C)C)NC(=O)[C@H](CCC(N)=O)NC(=O)[C@H](CO)NC(=O)[C@H](C)NC(=O)CC[C@H](NC(=O)CCCCCCCCCCCCCCC(=O)O)C(=O)O)[C@@H](C)O)[C@@H](C)O)C(=O)N[C@@H](CC(C)C)C(=O)N1CCC[C@H]1C(=O)N1CCC[C@H]1C(=O)N[C@H](C(=O)N[C@@H](CC(N)=O)C(=O)N[C@H](C(=O)NCC(=O)N[C@@H](CO)C(=O)N[C@@H](CC(N)=O)C(=O)N[C@H](C(=O)N1C[C@H](O)C[C@H]1C(N)=O)[C@@H](C)O)C(C)C)[C@@H](C)O [M38] ({C16 diacid-γGlu}-ASQLSTAATQRLADFLRHSSNNLKPILPPTNVGSNT[Hyp]-NH2)
